The values that follow come from patent US4032659A (priority 1975, dated 1977).

Where two headings read alike, the source gives them in different places.

For series [1], the system named is Herpes virus. In words: Herpes virus in eggs (chick embryo survival). Conditions: all doses. The class given is in vivo, chicken eggs.
The subject of series [2] is Influenza B Massachusetts virus. Nature of the series: Chemoprophylaxis of Influenza B Massachusetts virus infection in mice. It is filed as in vivo, mouse. To be noted: oral. As for the experimental part: The activity of four compounds on Influenza B Mass. was tested in mice.
A portion of a commercially available sample of amantadine was recrystallized from isopropanol. The activity of the material against Influenza B Mass. was tested for the sample as obtained, the recrystallized portion, and the mother liquor obtained from recrystallizing the portion.

Series [3] has as its system Influenza Ann Arbor virus. Nature of the series: Chemoprophylaxis of Influenza Ann Arbor (A1) virus infection in mice. It is filed as in vivo, mouse.
Series [4] relates to Influenza PR 8 virus. Nature of the series: Chemoprophylaxis of Influenza PR 8 virus infection in mice. The class given is in vivo, mouse. Conditions: oral.
The test system of series [5] is Vaccinia virus. It is filed as cell-based, fertile eggs. To be noted: various concentrations.
Series [6] relates to Herpes virus. The class given is in vivo, mouse. To be noted: oral.
In series [7] the test system is Influenza A PR8 virus. Set-up: dose or concentration left out as unconfirmed. To be noted: cited from earlier work.

For `NNC(N)=O` [semicarbazide], the “No. Living Longer Than Controls, total” value in series [1] was 10. In addition, the “No. animals surviving when 100% controls are dead” value in series [2] (total dose .000005 μg) turned out to be 0; in series [2] (total dose .00005 μg), 0; in series [2] (total dose .0005 μg) it was 1; in series [2] (total dose .05 μg), 1; in series [2] (total dose .5 μg), 1. Moreover, the Survivors in series [2] (total dose .000005 μg), in series [2] (total dose .00005 μg), in series [2] (total dose .0005 μg), in series [2] (total dose .005 μg), in series [2] (total dose .05 μg) and in series [2] (total dose .5 μg) was 0 throughout. The Survivors came out at 0 in series [3] (subcutaneous, total dose .05 μg); 0 in series [4] (total dose .000005 μg); 0 in series [4] (total dose .00005 μg); 0 in series [4] (total dose .0005 μg); 0 in series [4] (total dose .005 μg); 4 in series [4] (total dose .05 μg). Besides, the Survivors in series [6] (total dose .000005 μg) and in series [6] (total dose .5 μg) was 0 throughout. The “No. animals surviving after 5 days” value in series [2] (total dose .005 μg) was determined as 6; in series [2] (total dose .05 μg), 6; in series [2] (total dose .5 μg) it was 4. Moreover, in series [3] (oral, four dose levels), the “total number of survivors” value came to 10. Also, the “No. animals surviving when 18/20 of controls are dead” value was 0 in series [4] (total dose .00005 μg), 0 in series [4] (total dose .0005 μg), 0 in series [4] (total dose .005 μg) and 4 in series [4] (total dose .05 μg). Further, the “effect on pox formation on the membrane” value in series [5] is recorded as “No effect on pox formation on the membrane could be observed”.

For `CC(C=NNC(=N)N)=NNC(=N)N` [methyl-GAG, Methylgloxal-bis-guanylhydrazone], the inhibition entry in series [7] (lower limit) is recorded as “Ninety”. Further, the Toxicity entry in series [7] (upper limit) is recorded as “toxic”.
